Laboratory results: patent publication US20140086839A1, “QUINOLONE ANALOGS FOR TREATING AUTOIMMUNE DISEASES” (Tel HaShomer Medical Research Infrastructure and Services …, priority 2011, published 2014)

Key:
[1] = XTT cell viability assay of PHA-stimulated mouse splenocytes; type: cell-based
Experimental: FIG. 5 is a histogram depicting the effect of CX-5461 on viability of mouse splenocytes. Mouse splenocytes were plated in DMEM+10% FCS+P/S+Q and 10 μg/ml PHA (250,000 cell/well) in the presence of increased concentrations of CX-5461 (50-4000 nM) for 72 hours. Cells cultured with PHA alone served as controls. Following incubation cell viability was determined by XTT assay;
Cells viability was assessed by the 2,3 bis[2-Methoxy-4-nitro-5-sulfophenyl]-2H-tetrazolium-5-carboxanilide (XTT) as say (Biological Industries, Kibbutz Beit Hemeek, Israel) which measures the reduction of a tetrazolium component (XTT) into soluble formazan product by the mitochondria of viable cells. The intensity of the dye obtained is proportional to the number of metabolic active cells. Mouse splenocytes were plated in presence of PHA ([…]) and elevated concentrations of CX-5461 (50-4000 nM) for 72 hours. Cells plated in absence of CX-5461 served as controls. Following incubation, cell viability was measured by 2,3-bis-(2-methoxy-4-nitro-5-sulfophenyl)-2H-tetrazolium-5-carboxanilide (XTT) assay according to manufacturer's instructions (Biological Industries, Kibbutz Beit Hemeek, Israel). The intensity of the dye obtained is proportional to the number of metabolic active cells.

MOG-induced EAE [2] = assay: MOG-induced EAE, CX-5461 treatment initiated at clinical onset; type: in vivo
Experimental: (§1) EAE was induced in female C57BL/6 mice, 8 weeks of age, by subcutaneous immunization to the flank of emulsion (1:1 ratio volume/volume) containing […] peptide dissolved in phosphate-buffered saline (PBS) (at a concentration 2 mg/ml) and 0.5 mg Mycobacterium Tuberculosis H37Ra (Difco, Detroit, Mich.) in […] incomplete Freund's adjuvant (Sigma, St. Louis, Mo.). Pertussis toxin 200 ng/mouse (dissolved in […] PBS (List Biological Laboratories, Campbell, Calif.) was injected intra-peritoneal on the day of immunization and again two days later. Mice were monitored daily for clinical signs of EAE, scored as follows: 1-flaccid tail; 1.5—hind limb weakness; 2—paralyzed hind limbs and poor righting ability; 2.5—forelimb weakness, paralyzed hind limbs, paralyzed tail; 3—four limbs paralysis, inability to right; 4—quadriplegia; 5.0—moribund or death of the animal after preceding clinical disease. Animal reaching a score of 4 were scarified using CO2. Mice were kept in an SPF (Specific Pathogen Free) environment. Animal breeding and maintenance and all experimental protocols were performed in accordance with the Israeli Council for Animal Care guidelines and all experiments were approved by Sheba IRB Animal Care Ethical Committee.
EAE was induced in mice as described in Example 6, hereinabove.
EAE was induced in female C57/6J female mice as described above. Treatment with CX-5461 was administered orally in 0.2 ml of vehicle with the following concentrations: 12.5 mg/kg/d (n=11 mice) and 25.0 mg/kg/d (n=8 mice). Vehicle treated mice served as controls (n=9 mice). CX-5461 treatment was initiated from the day of disease onset (score 0.5 or 1.0) for the following 14 days. The day of disease onset was evaluated for each animal daily.

[3] = XTT cell viability of PHA-stimulated human PBMCs from healthy subjects; type: cell-based; conditions: PHA 20 μg/ml, read-out: maximal effect on viability of human PBMCs (decrease)
Experimental: FIG. 6 is a histogram depicting the effect of CX-5461 on viability of human PBMCs. Human PBMCs were plated in DMEM+10% FCS+P/S+Q and 20 μg/ml PHA (400,000 cell/well) in the presence of increased concentrations of CX-5461 (50-500 nM) for 72 hours. Cells cultured with PHA alone served as controls. After incubation cell viability was determined by XTT assay;
PBMCs ([…]) from normal, healthy, subjects were plated in the presence of PHA (20 μg/ml) with elevated concentrations of CX-5461 (50-500 nM) for 72 hours. Cells plated in absence of CX-5461 served as controls.

MOG-induced EAE [4] = assay: MOG-induced EAE, CX-5461 prophylactic treatment initiated at induction phase; type: in vivo; conditions: for Cumulative disease score / Disease onset / Maximal clinical score: 9 days
Experimental: as §1
EAE was induced in female C57Bl/6J female mice (8 weeks old) as described above. Treatment with CX-5461 was initiated on the day of induction and continued till the clinical signs of EAE appeared in the control animal group (In 2 out of the 7 mice clinical signs of EAE appeared). CX-5461 was administered orally to each animal; the following doses of CX-5461 in 0.2 ml of vehicle were used: 12.5 mg/kg (n=6 mice), 25 mg/kg (n=6 mice) and 50 mg/kg (n=7 mice) in 0.2 ml of vehicle. Vehicle treated mice served as controls (n=7 mice). Treatment continued for 9 days post induction, until the first sign of EAE (grade 1) appeared in the vehicle animal group (in 2 out of 7 mice). Mice were monitored daily for clinical signs of EAE up to 42 days post induction.

[5] = XTT cell viability assay of neuronal progenitor cells; type: cell-based, mice; conditions: read-out: decrease in NPC cell viability
Experimental: (§2) FIG. 8 is a histogram depicting the effects of CX-5461 on viability of neuronal progenitor cells (NPCs). Mouse NPCs were plated in neurospheres medium containing basic FGF and EGF at 20 ng/ml each (26,000 cell/well) in the presence of increased concentrations of CX-5461 (20-500 nM) for 72 hours. Cells cultured without CX-5461 served as controls. Following incubation cell viability was determined by XTT assay;
(§3) NPCs derived from the subventricular zone of the lateral ventricle of adult mice were allowed to proliferate in the presence of increased concentrations of CX-5461 (20 nM to 500 nM) for 72 hours, and cell viability was tested using XTT assay.

[6] = test system: neural progenitor cells (NPCs); assay: as above; type: cell-based, mice; conditions: 20 nM, 72 hours
Experimental: as §2, §3

[7] = 12.5 mg/kg/day oral from disease onset, 14 days
[8] = 25 mg/kg/day oral from disease onset
[9] = 12.5 mg/kg/day oral from day of EAE induction
[10] = 25.0 mg/kg/day oral from day of EAE induction

## Cc1cnc(CNC(=O)c2c(=O)c3ccc(N4CCCN(C)CC4)nc3n3c2sc2ccccc23)cn1 [CX-5461, 2-(4-methyl-1,4-diazepan-1-yl)-N-((5-methylpyrazin-2-yl)methyl)-5-oxo-5H-benzo[4,5]thiazolo[3,2-a][1,8]naphthyridine-6-carboxamide]
[1]; 50 nM, read-out: decrease in cell viability of splenocyte cells
  cytotoxicity at 72 h, 50 nM: 27%
[1]; 500 nM and higher concentrations, read-out: decrease in cell viability of splenocyte cells (maximal)
  cytotoxicity at 72 h: 97 to 100%
MOG-induced EAE [2]; [7]
  Cumulative disease score: 18.59 ± 4.26
  Maximal EAE score: 2 ± 0.47
  survival: all the animals survived
MOG-induced EAE [2]; [8]
  EAE score: 0.88±0.18
  toxic effects: change in their fur color and brightness and loss of weight
MOG-induced EAE [2]; 25 mg/kg/day oral from disease onset, all mice died
  time to death (toxic effects): 10.1 ± 0.5 days
[3]
  cytotoxicity at 72 h, 50 nM: 35%
MOG-induced EAE [4]; [9]
  Cumulative disease score: 16.25 ± 3.94
  Disease onset: 20.83 ± 1.36 days p.i.
  Maximal clinical score: 2.83 ± 0.49
MOG-induced EAE [4]; [10]
  Cumulative disease score: 14.1 ± 3.5
  Disease onset: 23.1 ± 1.2 days p.i.
  Maximal clinical score: 3.3 ± 1.0
MOG-induced EAE [4]; 50 mg/kg/day oral, days of treatment post-induction, mean
  time to death (toxicity): 7.6 ± 0.5 days
MOG-induced EAE [4]; 50 mg/kg/day oral, since day 5 of treatment
  toxic signs: change in the color and brightness of their fur, loss of weight and change in behavior
MOG-induced EAE [4]; all CX-5461 treated groups, not dependent on concentration
  delay of EAE onset versus vehicle-control group: 10 days
[5]; mouse, 50 nM
  cytotoxicity at 72 h, 50 nM: 30%
[5]; mouse, 100, 250 and 500 nM
  cytotoxicity at 72 h: ~50%
[6]
  effect on NPCs viability: no effect
